Test results reported in US8541460B2, “PDK-1/Akt signaling inhibitors” (The Ohio State University, priority 2003, dated 2013).

What was measured:
[1] = tested on: HT29; experiment: NCI DTP cell line screen (SRB), Colon Cancer; type: cell-based
[2] = tested on: CCRF-CEM; experiment: NCI DTP cell line screen (SRB), Leukemia; type: cell-based
[3] = tested on: PC-3 cells; experiment: Apoptosis analysis (DNA fragmentation ELISA, PARP cleavage); type: cell-based, human; conditions: 1% FBS-containing medium
Description: Apoptosis analysis Two methods were used to assess drug-induced apoptotic cell death: detection of DNA fragmentation by the Cell Death Detection ELISA kit (Roche Diagnostics. Mannheim, Germany) and Western blot analysis of poly-(ADP-ribose)polymerase (PARP) cleavage. […] In brief, 4×10^5 PC-3 cells were cultured in a T-25 flask for 24 h before treatment. Cells were treated with the DMSO vehicle or the test agent at the indicated concentrations for 6-24 h, collected, and cell lysates equivalent to 2×10^3 PC-3 cells were used in the ELISA. For the PARP cleavage assay, drug-treated cells were collected 4-8 h post-treatment, washed with ice-cold PBS, and resuspended in lysis buffer containing 20 mM Tris-HCl, pH 8, 137 mM NaCl, 1 mM CaCl2, 10% glycerol, 1% Nonidet P-40, 0.5% deoxycholate, 0.1% SDS, 100 μM 4-(2-aminoethyl)benzenesulfonyl fluoride, leupeptin at 10 μg/mL, and aprotinin at 10 μg/mL. Soluble cell lysates were collected after centrifugation at 10,000 g for 5 min. Equivalent amounts of proteins (60-100 μg) from each lysate were resolved in 8% SDS-polyacrylamide gels. Bands were transferred to nitrocellulose membranes, and analyzed by immunoblotting with anti-PARP antibody.

[4] = tested on: sixty human tumor cell lines; experiment: NCI DTP screen, means over sixty human tumor cell lines; type: cell-based; conditions: two-day treatment
Description: (§1) Screening of compounds 70 and 71 against several cancer cell lines The human tumor cell lines of the cancer screening panel are grown in RPMI 1640 medium containing 5% fetal bovine serum and 2 mM L-glutamine. For a typical screening experiment, cells are inoculated into 96 well microtiter plates in 100 μL at plating densities ranging from 5,000 to 40,000 cells/well depending on the doubling time of individual cell lines. After cell inoculation, the microtiter plates are incubated at 37° C., 5% CO2, 95% air and 100% relative humidity for 24 h prior to addition of experimental drugs.
(§2) After 24 h, two plates of each cell line are fixed in situ with TCA, to represent a measurement of the cell population for each cell line at the time of drug addition (Tz). Experimental drugs are solubilized in dimethyl sulfoxide at 400-fold the desired final maximum test concentration and stored frozen prior to use. At the time of drug addition, an aliquot of frozen concentrate is thawed and diluted to twice the desired final maximum test concentration with complete medium containing 50 μg/ml gentamicin. Additional four, 10-fold or ½ log serial dilutions are made to provide a total of five drug concentrations plus control. Aliquots of 100 μl of these different drug dilutions are added to the appropriate microtiter wells already containing 100 μl of medium, resulting in the required final drug concentrations.
Following drug addition, the plates are incubated for an additional 48 h at 37° C., 5% CO2, 95% air, and 100% relative humidity. For adherent cells, the assay is terminated by the addition of cold TCA. Cells are fixed in situ by the gentle addition of 50 μl of cold 50% (w/v) TCA (final concentration, 10% TCA) and incubated for 60 minutes at 4° C. […] Bound stain is subsequently solubilized with 10 mM trizma base, and the absorbance is read on an automated plate reader at a wavelength of 515 nm. […] Using the seven absorbance measurements [time zero, (Tz), control growth, (C), and test growth in the presence of drug at the five concentration levels (Ti)], the percentage growth is calculated at each of the drug concentrations levels. Percentage growth inhibition is calculated as: [(Ti−Tz)/(C−Tz)]×100 for concentrations for which Ti>/=Tz [(Ti−Tz)/Tz]×100 for concentrations for which Ti<Tz
Three dose response parameters are calculated for each experimental agent. […] The drug concentration resulting in total growth inhibition (TGI) is calculated from Ti=Tz. […] Values are calculated for each of these three parameters if the level of activity is reached; however, if the effect is not reached or is exceeded, the value for that parameter is expressed as greater or less than the maximum or minimum concentration tested. […]

[5] = tested on: NCI-H226; experiment: NCI DTP cell line screen (SRB), Non-Small Cell Lung Cancer; type: cell-based, human
Description: as §1, §2
Following drug addition, the plates are incubated for an additional 48 h at 37° C., 5% CO2, 95% air, and 100% relative humidity. For adherent cells, the assay is terminated by the addition of cold TCA. Cells are fixed in situ by the gentle addition of 50 μl of cold 50% (w/v) TCA (final concentration, 10% TCA) and incubated for 60 minutes at 4° C. The supernatant is discarded, and the plates are washed five times with tap water and air dried. Sulforhodamine B (SRB) solution (100 μl) at 0.4% (w/v) in 1% acetic acid is added to each well, and plates are incubated for 10 minutes at room temperature. After staining, unbound dye is removed by washing five times with 1% acetic acid and the plates are air dried. Bound stain is subsequently solubilized with 10 mM trizma base, and the absorbance is read on an automated plate reader at a wavelength of 515 nm. For suspension cells, the methodology is the same except that the assay is terminated by fixing settled cells at the bottom of the wells by gently adding 50 μl of 80% TCA (final concentration, 16% TCA). Using the seven absorbance measurements [time zero, (Tz), control growth, (C), and test growth in the presence of drug at the five concentration levels (Ti)], the percentage growth is calculated at each of the drug concentrations levels. Percentage growth inhibition is calculated as: [(Ti−Tz)/(C−Tz)]×100 for concentrations for which Ti>/=Tz [(Ti−Tz)/Tz]×100 for concentrations for which Ti<Tz
Three dose response parameters are calculated for each experimental agent. […] The drug concentration resulting in total growth inhibition (TGI) is calculated from Ti=Tz. […] Values are calculated for each of these three parameters if the level of activity is reached; however, if the effect is not reached or is exceeded, the value for that parameter is expressed as greater or less than the maximum or minimum concentration tested.
The methods described were used to test compounds 70 and 71 on a panel of sixty cell lines under a screening service provided by the Developmental Therapeutics Program at the National Institutes of Health. Shown in FIG. 1C are 1, RPMI-8226 leukemia cells; 2; NCI-H322M non-small cell lung cancer cells; 3, HT29 colon cancer cells; 4, U251 CNS cancer cells; 5, SK-MEL-28 melanoma cancer cells; 6, SK-OV-3 ovarian cancer cells; 7, RXF 393 renal cancer cells; 8, PC-3 prostate cancer cells; 9, MDA-MB-231 breast cancer cells.

[6] = read-out: LC50 (the source's name)

Structure (SMILES) | TGI [1] | Percent Growth ([1]; Log10 Concentration −4.0) [%] | Percent Growth ([1]; Log10 Concentration −5.0) [%] | Percent Growth ([1]; Log10 Concentration −6.0) [%] | Percent Growth ([1]; Log10 Concentration −7.0) [%] | Percent Growth ([1]; Log10 Concentration −8.0) [%] | TGI [2] | Percent Growth ([2]; Log10 Concentration −4.0) [%] | Percent Growth ([2]; Log10 Concentration −5.0) [%] | Percent Growth ([2]; Log10 Concentration −6.0) [%] | Percent Growth ([2]; Log10 Concentration −7.0) [%] | Percent Growth ([2]; Log10 Concentration −8.0) [%] | apoptotic death in PC-3 cells (DNA fragmentation and PARP cleavage) [3] | mean TGI among the sixty cell lines [4] [µM] | also measured
N=C(N)Nc1ccc(-n2nc(C(F)(F)F)cc2-c2ccc3c(ccc4ccccc43)c2)cc1 [Compound 71, 4-[5-(2-Phenanthrenyl)-3-(trifluoromethyl)-1H-pyrazol-1-yl]-phenyl-guanidine] | 2.83E−06 | −99 | −100 | 82 | 91 | 95 | 2.48E−06 | −53 | −99 | 65 | 79 | 78 | induced apoptotic death in PC-3 cells in 1% FBS-containing medium in a dose-dependent manner | 2.9 | GI50 [1]: 1.5 µM; Mean Optical Densities ([1]; Log10 Concentration −4.0): 0.003; Mean Optical Densities ([1]; Log10 Concentration −5.0): −0.054; Mean Optical Densities ([1]; Log10 Concentration −6.0): 1.136; Mean Optical Densities ([1]; Log10 Concentration −7.0): 1.238; Mean Optical Densities ([1]; Log10 Concentration −8.0): 1.276; CC50 [1, 6]: 5.32 µM; GI50 [2]: 1.23 µM; Mean Optical Densities ([2]; Log10 Concentration −4.0): 0.140; Mean Optical Densities ([2]; Log10 Concentration −5.0): 0.002; Mean Optical Densities ([2]; Log10 Concentration −6.0): 0.718; Mean Optical Densities ([2]; Log10 Concentration −7.0): 0.811; Mean Optical Densities ([2]; Log10 Concentration −8.0): 0.808; CC50 [2, 6]: 5 µM; GI50 ([4]; read-out: mean GI50 among the sixty cell lines): 1.2 µM; CC50 ([4]; read-out: mean LC50 among the sixty cell lines): 8.5 µM
NCC(=O)Nc1ccc(-n2nc(C(F)(F)F)cc2-c2ccc3c(ccc4ccccc43)c2)cc1 [Compound 70, 2-Amino-N-{4-[5-(2-phenanthrenyl)-3-(trifluoromethyl)-1H-pyrazol-1-yl]-phenyl}-acetamide] | 2.64E−06 | −26 | −65 | 47 | 88 | 92 | 2.49E−06 | −34 | −43 | 28 | 81 | 74 | induced apoptotic death in PC-3 cells in 1% FBS-containing medium in a dose-dependent manner | 3.2 | Percent Growth ([5]; Log10 Concentration −4.0): −48%; Percent Growth ([5]; Log10 Concentration −5.0): −58%; Percent Growth ([5]; Log10 Concentration −6.0): 59%; Percent Growth ([5]; Log10 Concentration −7.0): 98%; Percent Growth ([5]; Log10 Concentration −8.0): 100%; TGI ([5]; in M (unit assumed)): 3.21E−06
